This is an account of results in patent US7592419.

Like-named read-outs stand apart in the source and are kept apart here.

For this data set the following is noted: rcm bond, CH2Cl2, 25.0 °C.

`COC(=O)[C@@H]1CCCCC=CCCCC[C@H](NC(=O)OC(C)(C)C)C(=O)N2C[C@H]3[C@@H]([C@H]2C(=O)N1)C3(C)C`: the ring closure, yield of all isomers (from C=CCCCC[C@H](NC(=O)[C@@H]1[C@@H]2[C@H](CN1C(=O)[C@H](CCCCC=C)NC(=O)OC(C)(C)C)C2(C)C)C(=O)OC, Grubbs I [(Cy3P)2Cl2Ru=CHPh], 100.0 mM, 24.0 h) is 48.2%.
As for `COC(=O)[C@@H]1CCCCC=CCCCC(C)(C)[C@H](NC(=O)OCc2ccccc2)C(=O)N2C[C@H]3[C@@H]([C@H]2C(=O)N1)C3(C)C`, the ring closure, yield of all isomers (from C=CCCCC[C@H](NC(=O)[C@@H]1[C@@H]2[C@H](CN1C(=O)[C@@H](NC(=O)OCc1ccccc1)C(C)(C)CCCC=C)C2(C)C)C(=O)OC, Grubbs catalyst (Grubbs I), 101.1 mM, 24.0 h) turned out to be 44.5%.
On to `COC(=O)CNC(=O)C(O)[C@@H]1CCCC=CCC[C@H](NC(=O)OCC(C)C)C(=O)N2CCC[C@H]2C(=O)N1` (stereo partly shown), for which the ring closure, yield of all isomers (from C=CCCC[C@H](NC(=O)[C@@H]1CCCN1C(=O)[C@H](CCC=C)NC(=O)OCC(C)C)C(O)C(=O)NCC(=O)OC, Grubbs catalyst (Grubbs I), 3.0 mM, 65.0 h) came to 20%.
As for `COC(=O)[C@@H]1CCCCC=CCCCC[C@H](NC(=O)OCc2ccccc2)C(=O)N2C[C@@H]3OC(C)(C)C[C@@H]3[C@H]2C(=O)N1`, the ring closure, yield of all isomers (from C=CCCCC[C@H](NC(=O)[C@@H]1[C@H]2CC(C)(C)O[C@H]2CN1C(=O)[C@H](CCCCC=C)NC(=O)OCc1ccccc1)C(=O)OC, Grubbs I [(Cy3P)2Cl2Ru=CHPh], 50.0 mM, 24.0 h) turned out to be 58.9%.
